Source: ChEMBL document CHEMBL4814025, “Exploring naltrexamine derivatives featuring azaindole moiety via nitrogen-walk approach to investigate their in vitro pharmacological profiles at the mu opioid receptor” (Bioorg Med Chem Lett, 2021)

Assays:
[1] = molecular target: Mu-type opioid receptor (Homo sapiens) (UniProt P35372); test: Partial agonist activity at mu opioid receptor (unknown origin) expressed in CHO cell membranes incubated for 1 hr by [35S]GTPgammaS binding assay relative to DAMGO; type: functional; conditions: Membrane
Mu-type opioid receptor [2] = molecular target: T1, Mu-type opioid receptor (Mus musculus, UniProt P42866); test: Displacement of [3H]-NLX from mouse mu opioid receptor expressed in CHO cell membranes measured after 1.5 hrs by competitive radioligand binding assay; design: species or system Membrane
Mu-type opioid receptor [3] = molecular target: T1, Mu-type opioid receptor; test: Partial agonist activity at mouse mu opioid receptor expressed in CHO cell membranes incubated for 1.5 hrs by [35S]GTPgammaS binding based scintillation counting method; type: functional, Membrane
[4] = molecular target: Mu-type opioid receptor (Mus musculus) (UniProt P42866); test: Partial agonist activity at mouse mu opioid receptor expressed in CHO cell membranes assessed as stimulation of [35S]GTPgammaS binding incubated for 1.5 hrs by scintillation counting method relative to DAMGO; type: functional; conditions: Membrane
Mu-type opioid receptor (Mus musculus), sequence (P42866 whole entry): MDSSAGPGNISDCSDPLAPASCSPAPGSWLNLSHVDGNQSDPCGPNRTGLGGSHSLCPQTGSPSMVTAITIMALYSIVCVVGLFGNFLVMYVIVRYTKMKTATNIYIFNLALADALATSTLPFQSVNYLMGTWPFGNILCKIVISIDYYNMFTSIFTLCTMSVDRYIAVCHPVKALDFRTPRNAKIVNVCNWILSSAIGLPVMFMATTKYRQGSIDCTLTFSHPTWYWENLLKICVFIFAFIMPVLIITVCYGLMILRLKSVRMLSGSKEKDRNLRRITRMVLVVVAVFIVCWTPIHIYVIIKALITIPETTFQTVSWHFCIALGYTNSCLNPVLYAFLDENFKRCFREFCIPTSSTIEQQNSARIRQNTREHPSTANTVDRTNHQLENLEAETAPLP

T1 sequence (P42866 whole entry): as above
Mu-type opioid receptor (Homo sapiens), sequence (P35372 whole entry): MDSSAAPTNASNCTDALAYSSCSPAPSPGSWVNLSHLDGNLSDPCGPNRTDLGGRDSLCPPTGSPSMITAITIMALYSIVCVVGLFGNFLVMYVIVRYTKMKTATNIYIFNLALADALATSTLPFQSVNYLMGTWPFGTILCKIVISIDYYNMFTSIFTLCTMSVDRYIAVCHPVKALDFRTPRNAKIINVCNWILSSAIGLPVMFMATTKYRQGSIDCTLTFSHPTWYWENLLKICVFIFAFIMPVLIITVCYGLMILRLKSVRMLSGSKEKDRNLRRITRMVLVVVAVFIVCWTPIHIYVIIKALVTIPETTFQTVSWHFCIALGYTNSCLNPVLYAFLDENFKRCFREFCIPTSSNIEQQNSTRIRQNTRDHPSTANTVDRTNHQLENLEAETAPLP

SMILES | Emax [1] [%] | further results
O=C(N[C@@H]1C=C[C@@]2(O)[C@H]3Cc4ccc(O)c5c4[C@@]2(CCN3CC2CC2)[C@H]1O5)c1c[nH]c2ccncc12 | 14.9 | 
O=C(N[C@H]1C=C[C@@]2(O)[C@H]3Cc4ccc(O)c5c4[C@@]2(CCN3CC2CC2)[C@H]1O5)c1n[nH]c2ccccc12 | 12.3 | 
O=C(N[C@@H]1C=C[C@@]2(O)[C@H]3Cc4ccc(O)c5c4[C@@]2(CCN3CC2CC2)[C@H]1O5)c1c[nH]c2cnccc12 | 26.2 | 
O=C(N[C@@H]1C=C[C@@]2(O)[C@H]3Cc4ccc(O)c5c4[C@@]2(CCN3CC2CC2)[C@H]1O5)c1c[nH]c2ccccc12 |  | Ki (Mu-type opioid receptor [2]): 0.19 nM; EC50 (Mu-type opioid receptor [3]): 0.22 nM; Emax ([4]; filed as partial agonist): 79.5%
O=C(N[C@H]1C=C[C@@]2(O)[C@H]3Cc4ccc(O)c5c4[C@@]2(CCN3CC2CC2)[C@H]1O5)c1c[nH]c2ccccc12 |  | Ki (Mu-type opioid receptor [2]): 0.29 nM; EC50 (Mu-type opioid receptor [3]): 1 nM; Emax [4]: 33.3%
O=C(N[C@H]1C=C[C@@]2(O)[C@H]3Cc4ccc(O)c5c4[C@@]2(CCN3CC2CC2)[C@H]1O5)c1c[nH]c2ccncc12 | 21.7 | 
O=C(N[C@H]1C=C[C@@]2(O)[C@H]3Cc4ccc(O)c5c4[C@@]2(CCN3CC2CC2)[C@H]1O5)c1c[nH]c2cnccc12 | 21.1 | 
O=C(N[C@@H]1C=C[C@@]2(O)[C@H]3Cc4ccc(O)c5c4[C@@]2(CCN3CC2CC2)[C@H]1O5)c1c[nH]c2ncccc12 |  | Emax ([1]; filed as partial agonist): 40.7%
O=C(N[C@@H]1C=C[C@@]2(O)[C@H]3Cc4ccc(O)c5c4[C@@]2(CCN3CC2CC2)[C@H]1O5)c1c[nH]c2cccnc12 | 22.4 | 
O=C(N[C@H]1C=C[C@@]2(O)[C@H]3Cc4ccc(O)c5c4[C@@]2(CCN3CC2CC2)[C@H]1O5)c1c[nH]c2cccnc12 | 18 | 
O=C(N[C@H]1C=C[C@@]2(O)[C@H]3Cc4ccc(O)c5c4[C@@]2(CCN3CC2CC2)[C@H]1O5)c1cccc2cc[nH]c12 |  | Emax [4]: 19.1%
O=C(N[C@@H]1C=C[C@@]2(O)[C@H]3Cc4ccc(O)c5c4[C@@]2(CCN3CC2CC2)[C@H]1O5)c1n[nH]c2ccccc12 | 39.6 | 
O=C(N[C@H]1C=C[C@@]2(O)[C@H]3Cc4ccc(O)c5c4[C@@]2(CCN3CC2CC2)[C@H]1O5)c1c[nH]c2ncccc12 | 22.1 | 
